The record followed here is patent US8071651B2, “5-amino-4-hydroxy-7-(imidazo [1,2-A] pyridin-6-ylmethyl)-8-methyl-nonamide derivatives and related compounds as renin inhibitors for the treatment of hypertension” (Novartis AG, priority 2005, dated 2011).

This test concerns the target T1, renin (Homo sapiens, UniProt P00797).
T1 construct: This test measures the formation of angiotensin I in human plasma; from tissue; host or cells: human plasma
T1 sequence (P00797 67-406): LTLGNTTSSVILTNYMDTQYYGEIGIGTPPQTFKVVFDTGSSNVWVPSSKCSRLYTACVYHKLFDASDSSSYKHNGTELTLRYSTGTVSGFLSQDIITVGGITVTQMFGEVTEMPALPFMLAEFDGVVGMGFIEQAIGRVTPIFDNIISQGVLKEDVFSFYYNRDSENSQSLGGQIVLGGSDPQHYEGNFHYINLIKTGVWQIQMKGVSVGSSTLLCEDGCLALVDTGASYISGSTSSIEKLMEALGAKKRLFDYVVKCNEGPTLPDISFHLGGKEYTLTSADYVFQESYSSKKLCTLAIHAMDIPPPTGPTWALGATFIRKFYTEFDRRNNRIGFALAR
The test can be described thus: in vitro test of Nussberger et al.: formation of angiotensin I in human plasma, determined by radio-immunoassay. As to conditions: concentration of inhibitor which reduces the formation of angiotensin I in human plasma by 50%. In kind it is biochemical. The protocol:
The effect of renin inhibitors is detected inter alia experimentally by means of in vitro tests where the reduction in the formation of angiotensin I is measured in various systems (human plasma, purified human renin together with synthetic or natural renin substrate). The following in vitro test of Nussberger et al. (1987) J. Cardiovascular Pharmacol., Vol. 9, pp. 39-44, is used, inter alia. This test measures the formation of angiotensin I in human plasma. The amount of angiotensin I formed is determined in a subsequent radio-immunoassay. The effect of inhibitors on the formation of angiotensin I is tested in this system by adding various concentrations of these substances. The IC50 is defined as the concentration of the particular inhibitor which reduces the formation of angiotensin I by 50%. The compounds of the present invention show inhibitory effects in the in vitro systems at minimal concentrations of about 10^−6 to about 10^−10 mol/l.
What is called IC50 is the concentration needed to halve the response being measured. Read a high IC50 as lower potency. `COCCCCc1cc(CC(CC(N)C(O)CC(C(=O)NCC2CC23CCOCC3)C(C)C)C(C)C)cnc1OC` (centres unmarked) [Example 36IIII] displayed an IC50 of 3.5 nM.
To `COCCCCc1cc(CC(CC(N)C(O)CC(C(=O)NCC2CCOCC2)C(C)C)C(C)C)cc(C)n1` (centres unmarked) [Example 32JJJ] belongs 2.6 nM.
The value for `COCCCCc1cc(CC(CC(N)C(O)CC(C(=O)NCC2C3COCC23)C(C)C)C(C)C)cnc1OC` (centres unmarked) [Example 36BBBB] was 4.8 nM.
The compound `COCCCCc1cc(CC(CC(N)C(O)CC(C(=O)NC2C3COCC32)C(C)C)C(C)C)cnc1OC` (centres unmarked) [Example 36DDDD] had a concentration for half-maximal inhibition (IC50) of 3.1 nM.
Compound `COCCCCc1cc(CC(CC(N)C(O)CC(C(=O)NCC2CC23CCOCC3)C(C)C)C(C)C)cnc1OC` (centres unmarked) [Example 36HHHH] yielded an IC50 of 2.9 nM.
